Literature values, collected in patent publication US20190282540A1, “TARGETED DRUG DELIVERY” (NOXOPHARM LIMITED, priority 2016, published 2019).

Key:
[1] = [14C] idronoxil given orally, target dose 20 mg/kg
[2] = tested on: wide range of cancer cell types; details: fold relative to genistein
[3] = in vivo, following dietary challenge

brain-to-blood ratio [3] | Structure (SMILES) | levels of isotope in the brain and spinal cord [1] | potency as an anti-cancer agent compared to genistein [2] | conjugation (intravenously administered, second-pass liver metabolism) | conversion into water-soluble conjugates (orally administered, gut mucosa transferase activity and first-pass liver metabolism)
– | Oc1ccc(C2=Cc3ccc(O)cc3OC2)cc1 [Idronoxil, 2H-1-Benzopyran-7-0,1,3-(4-hydroxyphenyl)] | below the limit of reliable measurement | about 10 × | completely conjugated | completely converted into water-soluble conjugates
0.04 | O=c1c(-c2ccc(O)cc2)coc2cc(O)cc(O)c12 [genistein] | – | – | – | –
